For 17 molecules, IC50 results are on record in patent publication US11999715B2, “ASK1 inhibiting agents” (BIOGEN MA INC., priority 2018, dated 2024).

The term IC50 denotes the concentration that gives 50% inhibition. Read a high IC50 as weaker potency in that assay.

Assay [1] concerns the target T1, ASK1/MAP3K5 (Homo sapiens, UniProt Q99683).
T1 sequence (Q99683 1-1374): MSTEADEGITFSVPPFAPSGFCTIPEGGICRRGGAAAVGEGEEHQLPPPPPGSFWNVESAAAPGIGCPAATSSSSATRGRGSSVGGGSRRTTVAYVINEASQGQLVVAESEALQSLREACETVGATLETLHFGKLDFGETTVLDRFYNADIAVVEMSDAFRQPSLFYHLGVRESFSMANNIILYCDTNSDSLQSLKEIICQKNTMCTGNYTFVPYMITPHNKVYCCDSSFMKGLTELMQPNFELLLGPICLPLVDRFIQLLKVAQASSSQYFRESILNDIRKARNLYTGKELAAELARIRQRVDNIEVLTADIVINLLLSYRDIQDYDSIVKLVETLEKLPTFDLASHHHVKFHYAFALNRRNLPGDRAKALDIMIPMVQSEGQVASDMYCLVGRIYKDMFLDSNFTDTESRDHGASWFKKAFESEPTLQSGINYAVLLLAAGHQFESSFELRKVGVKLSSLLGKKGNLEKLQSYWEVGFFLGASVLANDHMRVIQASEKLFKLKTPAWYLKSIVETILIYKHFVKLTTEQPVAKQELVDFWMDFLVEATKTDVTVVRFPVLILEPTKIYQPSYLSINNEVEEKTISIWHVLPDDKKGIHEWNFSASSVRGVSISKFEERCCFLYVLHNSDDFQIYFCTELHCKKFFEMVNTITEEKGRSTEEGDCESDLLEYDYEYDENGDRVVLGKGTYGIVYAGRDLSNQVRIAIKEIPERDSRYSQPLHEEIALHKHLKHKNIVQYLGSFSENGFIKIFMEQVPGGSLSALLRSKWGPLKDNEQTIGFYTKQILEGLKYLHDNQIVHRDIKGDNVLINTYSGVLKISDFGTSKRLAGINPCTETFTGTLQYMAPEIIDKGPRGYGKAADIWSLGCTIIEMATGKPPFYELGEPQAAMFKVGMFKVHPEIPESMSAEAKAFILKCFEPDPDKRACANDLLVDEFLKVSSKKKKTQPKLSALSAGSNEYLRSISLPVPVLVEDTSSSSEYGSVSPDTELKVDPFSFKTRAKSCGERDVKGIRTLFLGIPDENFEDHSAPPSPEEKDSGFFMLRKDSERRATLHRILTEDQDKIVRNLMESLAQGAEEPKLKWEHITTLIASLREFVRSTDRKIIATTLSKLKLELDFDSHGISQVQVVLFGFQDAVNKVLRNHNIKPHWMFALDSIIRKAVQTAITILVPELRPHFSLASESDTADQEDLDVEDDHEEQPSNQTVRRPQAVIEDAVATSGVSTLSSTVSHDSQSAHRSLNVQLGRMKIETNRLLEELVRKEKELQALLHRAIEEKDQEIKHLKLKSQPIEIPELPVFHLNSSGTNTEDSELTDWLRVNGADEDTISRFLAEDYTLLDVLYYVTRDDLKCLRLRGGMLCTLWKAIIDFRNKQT
The experiment in a line: ASK1/MAP3K5 kinase assay by Reaction Biology Corp. (headed ASK1 TR-FRET Assay). In kind it is biochemical. The conditions noted are these: 20 μM myelin basic protein, 10 μM ATP. As to the method:
Example 111: Brief Description of ASK1 TR-FRET Assay The protein kinase inhibitory activity of the compounds described herein were tested using the ASK1/MAP3K5 assay by Reaction Biology Corp. (Malvern, PA). The assay procedure follows (and is also available on the Reaction Biology Corp. website). Base Reaction Buffer: 20 mM Hepes (pH 7.5), 10 mM MgCl2, 1 mM EGTA, 0.02% Brij35, 0.02 mg/mL BSA, 0.1 mM Na3VO4, 2 mM DTT, 1% DMSO; Substrate: 20 μM of myelin basic protein (MBP) and 10 μM ATP; Protein kinase: ASK1/MAP3K5. Reaction Procedure: • 1. Prepare indicated substrate in freshly prepared Base Reaction Buffer. • 2. Deliver any required cofactors to the substrate solution. • 3. Deliver indicated kinase into the substrate solution and gently mix. • 4. Deliver compounds in DMSO into the kinase reaction mixture by Acoustic; technology (Echo550; nanoliter range), incubate for 20 minutes at room temperature. • 5. Deliver ^33P-ATP (specific activity 10 μCi/μL) into the reaction mixture to initiate the reaction. • 6. Incubate kinase reaction for 2 hours at room temperature. • 7. Reactions are spotted onto P81 ion exchange paper. • 8. Detect kinase activity by filter-binding method.

The target of assay [2] is T2, ASK1 T838 auto phosphorylation (Homo sapiens, UniProt Q99683).
T2 sequence (Q99683 1-1374): T1 sequence (Q99683 1-1374)
The experiment in a line: ASK1 (AUTO PHOS T838) assay, MSD format, in HEK-293T cells transfected with ASK1-V5. In kind it is cell-based. To be noted: ASK1 T838 auto phosphorylation in HEK-293T cells, 1 hr compound incubation; class symbols. The protocol: Example 112: Brief Description of ASK1(AUTO PHOS T838) Assay ASK1 T838 auto phosphorylation was measured in HEK-293T cells using MSD assay format. HEK 293T cells were seeded in 15 cm plates at a density of 18 million cells and 20 mL DMEM with 10% FBS, Pen/Strep media. The plates were incubated at 37° C. overnight. Media on plates was changed to OPTI-MEM, serum free media and cells were transfected with 9 μg of ASK1-V5 tagged full length plasmid using Lipofectamine 2000 (Invitrogen) and the plates were incubated at 37° C. overnight. Cells were trypsinized, counted on Nexcellometer and plated into 96 well tissue culture plates with 100,000 cells/well and 200 μL media. Cells were incubated for 4 hr at 37° C. then ASK1 compounds were added using a HP 300e. Compounds were tested at 20 μM with 3 fold, 10 point dilution points then incubated for 1 hr at 37° C. A lysis buffer (Cell Signaling) was prepared with protease and phosphatase inhibitor and maintained at 4° C. until use. Media from cells was discarded and 120 μL of cold lysis buffer was added to the cells, the plate was shaken 4° C. for 1 hr. Lysate was mixed using Apricot liquid handler; aspirating up and down 16 times at high speed using 50 μL volume. […] Plates were then incubated on a plate shaker overnight at 4° C. Plates were washed 3× with MSD wash buffer and 50 μL of rabbit anti-pASK1 T838 antibody was added to the wells and incubated for 2 hr at room temperature on a plate shaker. Plates were then washed and 50 μL of goat anti-rabbit sulfa-tag (1:500 dilution) was added to wells, and incubated for 1 hr at room temperature on a plate shaker. […] Plates were immediately read on a MSD Instrument Reader where chemoluminescence signal was measured. Data was analyzed using Graph Pad or Genedata, the data was normalized and plotted, % activity versus log of compound concentration. The IC50 values were obtained from a 4 parameter fit. The compounds described herein were tested for in the above cell-based assay.

For the molecule `COc1nn(C)cc1C(=O)Nc1cccc(-c2nncn2[C@H](C)CO)n1` (single isomer, unassigned) [Example 36], the IC50 is at most 100 nM in assay [1] (class symbols) and at most 1000 nM in assay [2].

Regarding `CCn1cc(C(=O)Nc2cccc(-c3nncn3[C@@H](C)C(F)(F)F)n2)c(OC)n1` [Example 15, (S)-1-Ethyl-3-methoxy-N-(6-(4-(1,1,1-trifluoropropan-2-yl)-4H-1,2,4-triazol-3-yl)pyridin-2-yl)-1H-pyrazole-4-carboxamide], the IC50 in assay [1] (class symbols) is at most 100 nM; in assay [2], at most 1000 nM.

For `COc1nn(C)cc1C(=O)Nc1cccc(-c2nncn2[C@@H](C)C(F)F)n1` (single isomer, unassigned) [Example 27], the half-inhibitory concentration (IC50) was at most 100 nM in assay [1] (class symbols) and at most 1000 nM in assay [2].

`COc1nn(C)cc1C(=O)Nc1cccc(-c2nncn2[C@@H](C)C(F)(F)F)n1` [Example 12, (S)-3-Methoxy-1-methyl-N-(6-(4-(1,1,1-trifluoropropan-2-yl)-4H-1,2,4-triazol-3-yl)pyridin-2-yl)-1H-pyrazole-4-carboxamide]: the IC50 in assay [1] (class symbols) was at most 100 nM; in assay [2], at most 1000 nM.

With `COc1nn(C)cc1C(=O)Nc1cccc(-c2nncn2C2CCC2(F)F)n1` (stereo not shown) [Example 30, N-(6-(4-(2,2-Difluorocyclobutyl)-4H-1,2,4-triazol-3-yl)pyridin-2-yl)-3-methoxy-1-methyl-1H-pyrazole-4-carboxamide], the half-inhibitory concentration (IC50) in assay [1] (class symbols) is at most 100 nM; in assay [2], at most 1000 nM.

For `CC(C)n1cncc1-c1cccc(NC(=O)c2cn(-c3cncc(N(C)C)c3)nc2C(F)F)n1` [Example 98, 3-(Difluoromethyl)-1-(5-(dimethylamino)pyridin-3-yl)-N-(6-(1-isopropyl-1H-imidazol-5-yl)pyridin-2-yl)-1H-pyrazole-4-carboxamide], the IC50 is 100 to 1000 nM in assay [1] (class symbols) and at most 1000 nM in assay [2].

Turning to `COc1nn(CC(C)C)cc1C(=O)Nc1cccc(-c2nncn2C(C)C)n1` [Example 42, 1-Isobutyl-N-(6-(4-isopropyl-4H-1,2,4-triazol-3-yl)pyridin-2-yl)-3-methoxy-1H-pyrazole-4-carboxamide], the IC50 in assay [1] (class symbols) is at most 100 nM; in assay [2] it was at most 1000 nM.

As for `CC(C)n1cncc1-c1cccc(NC(=O)c2cn(-c3cncc(C#N)c3)nc2C(F)F)n1` [Example 95, 1-(5-Cyanopyridin-3-yl)-3-(difluoromethyl)-N-(6-(1-isopropyl-1H-imidazol-5-yl)pyridin-2-yl)-1H-pyrazole-4-carboxamide], the IC50 in assay [1] (class symbols) was at most 100 nM; in assay [2], at most 1000 nM.

In the case of `COc1nn(CCN(C)C)cc1C(=O)Nc1cccc(-c2nncn2C(C)C)n1` [Example 45, 1-(2-(Dimethylamino)ethyl)-N-(6-(4-isopropyl-4H-1,2,4-triazol-3-yl)pyridin-2-yl)-3-methoxy-1H-pyrazole-4-carboxamide], the IC50 in assay [1] (class symbols) is at most 100 nM; in assay [2] it was at most 1000 nM.

Turning to `COc1nn(C)cc1C(=O)Nc1cccc(-c2nncn2C2(C(F)(F)F)CC2)n1` [Example 25, 3-Methoxy-1-methyl-N-(6-(4-(1-(trifluoromethyl)cyclopropyl)-4H-1,2,4-triazol-3-yl)pyridin-2-yl)-1H-pyrazole-4-carboxamide], the IC50 in assay [1] (class symbols) was at most 100 nM; in assay [2] it was at most 1000 nM.

On to `CC(C)n1cnnc1-c1cccc(NC(=O)c2cn(-c3cncc(N(C)C)c3)nc2C(F)F)n1` [Example 79, 3-(Difluoromethyl)-1-(5-(dimethylamino)pyridin-3-yl)-N-(6-(4-isopropyl-4H-1,2,4-triazol-3-yl)pyridin-2-yl)-1H-pyrazole-4-carboxamide], for which the values for the IC50 in assay [1] (class symbols) and in assay [2] were at most 100 nM and at most 1000 nM, respectively.

As to `COCc1nn(C)cc1C(=O)Nc1cccc(-c2nncn2C(C)C)n1` [Example 4, N-(6-(4-Isopropyl-4H-1,2,4-triazol-3-yl)pyridin-2-yl)-3-(methoxymethyl)-1-methyl-1H-pyrazole-4-carboxamide], the half-inhibitory concentration (IC50) in assay [1] (class symbols) was 100 to 1000 nM; in assay [2], 1000 to 10000 nM.

`CC(C)n1cnnc1-c1cccc(NC(=O)c2cn(C)nc2C(F)F)n1` [Example 6, 3-(Difluoromethyl)-N-(6-(4-isopropyl-4H-1,2,4-triazol-3-yl)pyridin-2-yl)-1-methyl-1H-pyrazole-4-carboxamide]: the values for the IC50 in assay [1] (class symbols) and in assay [2] were 100 to 1000 nM and at most 1000 nM, respectively.

For `COc1nn(C)cc1C(=O)Nc1cccc(-c2nncn2C2COC2)n1` [Example 107, 3-Methoxy-1-methyl-N-(6-(4-(oxetan-3-yl)-4H-1,2,4-triazol-3-yl)pyridin-2-yl)-1H-pyrazole-4-carboxamide], the figures for the IC50 in assay [1] (class given in words) and in assay [2] were at least 10000 nM and above 10000 nM, respectively.

Regarding `COc1nn(CCN2CCOCC2)cc1C(=O)Nc1cccc(-c2nncn2C(C)C)n1` [Example 46, N-(6-(4-Isopropyl-4H-1,2,4-triazol-3-yl)pyridin-2-yl)-3-methoxy-1-(2-morpholinoethyl)-1H-pyrazole-4-carboxamide], the IC50 in assay [1] (class symbols) was at most 100 nM; in assay [2] it was at most 1000 nM.

Regarding `COc1nn(CC(F)(F)F)cc1C(=O)Nc1cccc(-c2nncn2C2CC2)n1` [Example 105, N-(6-(4-Cyclopropyl-4H-1,2,4-triazol-3-yl)pyridin-2-yl)-3-methoxy-1-(2,2,2-trifluoroethyl)-1H-pyrazole-4-carboxamide], the IC50 in assay [1] (class symbols) is at most 100 nM; in assay [2] it was at most 1000 nM.

`CCOc1nn(C)cc1C(=O)Nc1cccc(-c2nncn2[C@@H](C)C(F)(F)F)n1` [Example 16, (S)-3-Ethoxy-1-methyl-N-(6-(4-(1,1,1-trifluoropropan-2-yl)-4H-1,2,4-triazol-3-yl)pyridin-2-yl)-1H-pyrazole-4-carboxamide]: the IC50 in assay [1] (class symbols) was at most 100 nM; in assay [2] it was at most 1000 nM.
